Source: US10258580B2, “Cannabinoids for use in the treatment of neurodegenerative diseases or disorders” (priority 2011, dated 2019)

Legend:
Aβ-stimulated C6 cells [1] = assay: Aβ-stimulated C6 cell viability/proliferation, MTT assay; assay type: cell-based; details: Aβ (1-42) 1 μg/mL, 24 hours
Procedure: (§1) The cannabinoids tested were CBG, CBC, and CBDV. The cannabinoids were isolated from cannabis plant material and purified. The cannabinoids were tested at a concentration of 10^−9 to 10^−6 M. The cannabinoids were dissolved in DMSO at the concentration of 10^−2M and then diluted in DMEM to their final concentration.
(§2) Glial cells (C6) were cultured in 10% FBS supplemented DMEM. PC12 neuronal cell were cultured in 10% FBS plus 5% HS supplemented DMEM and SHY-5SY neuronal cells were cultured in 10% FBS supplemented RPMI. Neuronal cells were differentiated with retinoic acid. After 24 hours of starvation glial cells, differentiated PC12 and SHY-5SY neuronal cells were treated with the cannabinoids, CBC, CBG and CBDV, in the presence or absence of 1 μg/mL of Aβ (1-42) for the following 24 hours.
(§3) Cell viability was determined using 3(4,5-dimethylthiazol-2yl)2,5-diphenyl-2H-tetrazolium bromide (MTT) assay which is an assay based on the ability of viable cells to convert MTT in formazan salt.
(§4) The cells were plated in 96-well culture plates at the density of 5×10^3 cells/well and allowed to adhere at 37° C. for 2 hours. Thereafter, the medium was replaced with fresh medium and the cells were treated as above described. After 24 hours 25 μl MTT (5 mg/ml in DMEM) was added to the cells and incubated for additional 3 hours at 37° C. After this time, the cells were lysed and the dark blue crystals solubilized with 125 μl of a solution containing 50% (v/v) N,N, dimethylformamide, 20% (w/v) sodium dodecylsulphate, with an adjusted pH of 4.5. The optical density of each well was measured with a microplate spectrophotometer (Titertek Multiscan MCC/340) equipped with a 620 nm filter.

TNF-alpha [2] = assay: TNF-alpha release in supernatant of Aβ-treated C6 cells, ELISA; assay type: cell-based; details: Aβ (1-42) 1 μg/mL, 24 hours, 10^−7 M
Procedure: (§5) Glial cells (C6) were cultured in 10% FBS supplemented DMEM, and SHY-5SY were cultured in 10% FBS supplemented RPMI. Neuronal cells were differentiated with retinoic acid. After 24 hours of starvation glial cells and SHY-5SY were treated with CBDV (10^−7M), CBD (10^−7 M), CBDVA (10^−7 M), CBDA (10^−7 M) and THCVA (10^−7 M) in presence or absence of Aβ (1-42) (1 μg/mL) for following 24 hours.
ELISA essay was performed on supernatants of cultured cells. Nunc Maxisorp 96-well microtiter plates (Gibco, Paisley, UK) were coated overnight at 4° C. with 1 μg/well of specific monoclonal antibody anti-TNF, diluted in 0.5 M Na2CO3. The wells were washed three times and then blocked with phosphate-buffered saline (PBS) containing 0.05% (v/v) Tween 20 and 0.3% Fetal Bovine Serum (ELISA buffer) for 30 min at room temperature. The standards and samples were added in a 100-μl volume and incubated at 37° C. for 1.5 h. The standard curve was generated using 0.1 ng to 1 μg/well of purified protein, diluted in ELISA buffer. Following four washes in ELISA buffer, monoclonal antibodies were diluted and added to the wells for 1 h. […] The colour reaction was stopped by addition of HCl and optical densities at 490 nm were measured using a microplate reader.

SH-SY5Y cells [3] = assay: Aβ-induced SH-SY5Y cell viability, MTT assay (Example 1); assay type: cell-based, human; details: Aβ (1-42) 1 μg/mL
Procedure: as §1, §2, §3, §4

SH-SY5Y cells [4] = assay: Aβ-induced SH-SY5Y viable cell number, cell counting by TC10 System; assay type: cell-based, human; details: Aβ (1-42) 1 μg/mL, 24 hours; 10^−7 M
Procedure: as §5
In another set of experiments cell counting was performed by TC10 System (BIO-RAD), according to manufacturing instruction.

Aβ-stimulated C6 cells [5] = assay: Nitrite (NO) production in Aβ-stimulated C6 cells, Griess reaction; assay type: cell-based; details: Aβ (1-42) 1 μg/mL, 24 hours; cannabinoid 10^−9 to 10^−6 M
Procedure: as §1, §2
Production of NO was assayed by measuring the amount of nitrite in the culture medium of C6 cells 24 hours after Aβ(1-42) (1 μg/mL) stimulation using a spectrophotometric assay based on Griess reaction.

SH-SY5Y cells [6] = assay: Aβ-induced SH-SY5Y cell viability, MTT/formazan test (Example 2); assay type: cell-based, human; details: Aβ (1-42) 1 μg/mL, 24 hours; 10^−7 M
Procedure: as §5
as §4, with “Cell activation/viability was determined using 3(4,5-dimethylthiazol-2yl)2,5-diphenyl-2H-tetrazolium bromide (MTT) assay, an assay based on the ability of viable cells to convert MTT in formazan salt. Briefly, the cells” for “The cells”

iNOS [7] = assay: iNOS mRNA level in Aβ-stimulated C6 cells, semi-quantitative RT-PCR; assay type: cell-based; details: Aβ (1-42) 1 μg/mL, 24 hours; 10^−7 M
Procedure: as §2
The mRNA level of iNOS in C6 cells was determined using the semi-quantitative RT-PCR method. The PCR-primers were selected according to appropriate DNA sequences. 15 μl aliquots of PCR products were electrophoretically fractionated through 1% agarose gel containing the fluorescent Vistra green dye. Labelling intensity of the PCR product, which is linear to the amount of DNA, was quantified using the Molecular Imager FX and Quantity One software (Biorad, Milan, Italy).

TNF-alpha [8] = assay: TNF-alpha protein expression in Aβ-stimulated C6 cells, western blot; assay type: cell-based; details: Aβ (1-42) 1 μg/mL, 24 hours, 10^−7 M
Procedure: as §5
(§6) Western blot analysis was performed on C6 and SHY-5SY cell lysate. Briefly cells were rapidly homogenized in 60 μl of ice-cold hypotonic lysis buffer [10 mM HEPES, 1.5 mM MgCl2, 10 mM KCl, 0.5 mM phenylmethylsulfonyl fluoride, 1.5 μg/mL soybean trypsin inhibitor, pepstatin A 7 μg/mL, leupeptin 5 μg/mL, 0.1 mM benzamidine, 0.5 mM dithiothreitol (DTT)]. After this time, the cytoplasmic fractions were then obtained by centrifugation at 13000 g for 10 min and protein concentration in the samples was determined with Bio-Rad assay kit according to the manufacturer's instructions. Immunoblotting analysis of iNOS, COX-2, TNF-a, Bcl2 and actin were performed on a cytosolic fraction. Protein concentration was determined and equivalent amounts (50 μg) of each sample were separated under reducing conditions in 12% SDS-polyacrylamide minigel. […] The protein bands were scanned and densitometrically analyzed with a GS-800 imaging densitometer (Bio-Rad Laboratories, Calif., USA).

COX2 = COX2 protein expression in Aβ-stimulated C6 cells, western blot; assay type: cell-based; details: Aβ (1-42) 1 μg/mL, 24 hours, 10^−7 M
Procedure: as §5, §6

Bcl2 = Bcl2 protein expression in Aβ-treated SH-SY5Y cells, western blot; assay type: cell-based, human; details: Aβ (1-42) 1 μg/mL, 24 hours, 10^−7 M
Procedure: as §5, §6

iNOS [9] = assay: iNOS protein expression in Aβ-stimulated C6 cells, western blot; assay type: cell-based; details: Aβ (1-42) 1 μg/mL, 24 hours, 10^−7 M
Procedure: as §5, §6

[10] = system: neuronal cultures exposed to glutamate; details: in vitro, pure/synthetic preparations; cited from earlier work
[11] = in vivo, pure CBD; cited from earlier work

Compound: C=C(C)[C@@H]1CCC(C)=C[C@H]1c1c(O)cc(CCC)cc1O [CBDV, cannabidivarin]
- Aβ-stimulated C6 cell viability (cell proliferation, MTT) (Aβ-stimulated C6 cells [1]; 10^−8 to 10^−6 M): significantly inhibited cell proliferation
- TNF-alpha release in the supernatant of cells (TNF-alpha [2]): significantly reduced
- Aβ-induced SH-SY5Y cell death (cell viability, MTT) (SH-SY5Y cells [3]; 10^−9 to 10^−6 M): able to prevent
- Aβ induced SH-SY5Y cell death (viable cell number, cell counting) (SH-SY5Y cells [4]): able to prevent
- nitrite production in Aβ-stimulated C6 cells (Aβ-stimulated C6 cells [5]): significantly reduced
- Aβ SH-SY5Y cell death (viability, MTT/formazan test) (SH-SY5Y cells [6]): able to prevent
- iNOS mRNA transcription in Aβ-stimulated C6 cells (iNOS [7]): significant reduction of mRNA transcription
- TNF-alpha protein expression (TNF-alpha [8]): significant reduction
- COX2 protein expression (COX2): significant reduction
- Bcl2 protein expression (Bcl2): significantly restored
- iNOS protein expression (iNOS [9]): significant reduction

Compound: C=C(C)[C@@H]1CCC(C)=C[C@H]1c1c(O)cc(CCCCC)cc1O [CBD, cannabidiol]
- prevention of glutamate toxicity [10]: could be prevented to some extent
- Aβ induced SH-SY5Y cell death (viable cell number, cell counting) (SH-SY5Y cells [4]): able to prevent
- Aβ SH-SY5Y cell death (viability, MTT/formazan test) (SH-SY5Y cells [6]): able to prevent
- difference between treated and placebo treated animals [11]: failed to find a difference

Compound: CCCCCc1cc(O)c2c(c1)OC(C)(CCC=C(C)C)C=C2 (stereo not shown) [CBC, cannabichromene]
- Aβ-stimulated C6 cell viability (cell proliferation, MTT) (Aβ-stimulated C6 cells [1]; 10^−7 to 10^−6 M): significantly inhibited cell proliferation
- Aβ-induced SH-SY5Y cell death (cell viability, MTT) (SH-SY5Y cells [3]; 10^−6 M (highest concentration used)): effective only at the highest concentration used
- nitrite production in Aβ-stimulated C6 cells (Aβ-stimulated C6 cells [5]): significantly reduced

Compound: CCCCCc1cc(O)c2c(c1)OC(C)(C)[C@@H]1CCC(C)=C[C@@H]21 [THC, tetrahydrocannabinol]
- prevention of glutamate toxicity [10]: could be prevented to some extent

Compound: CCCc1cc2c(c(O)c1C(=O)O)[C@@H]1C=C(C)CC[C@H]1C(C)(C)O2 [THCVA]
- Aβ induced SH-SY5Y cell death (viable cell number, cell counting) (SH-SY5Y cells [4]): No significant effect
- Aβ SH-SY5Y cell death (viability, MTT/formazan test) (SH-SY5Y cells [6]): had no effect

Compound: C=C(C)[C@@H]1CCC(C)=C[C@H]1c1c(O)cc(CCC)c(C(=O)O)c1O [CBDVA, cannabidivarin acid]
- Aβ induced SH-SY5Y cell death (viable cell number, cell counting) (SH-SY5Y cells [4]): able to prevent
- Aβ SH-SY5Y cell death (viability, MTT/formazan test) (SH-SY5Y cells [6]): able to prevent

Compound: CCCCCc1cc(O)c(C/C=C(\C)CCC=C(C)C)c(O)c1 [CBG, cannabigerol, reference compound]
- Aβ-stimulated C6 cell viability (cell proliferation, MTT) (Aβ-stimulated C6 cells [1]; 10^−9 to 10^−6 M): had no effect
- Aβ-induced SH-SY5Y cell death (cell viability, MTT) (SH-SY5Y cells [3]; 10^−9 to 10^−6 M): had no effect
- nitrite production in Aβ-stimulated C6 cells (Aβ-stimulated C6 cells [5]): had no effect

Compound: C=C(C)[C@@H]1CCC(C)=C[C@H]1c1c(O)cc(CCCCC)c(C(=O)O)c1O [CBDA]
- Aβ induced SH-SY5Y cell death (viable cell number, cell counting) (SH-SY5Y cells [4]): No significant effect
- Aβ SH-SY5Y cell death (viability, MTT/formazan test) (SH-SY5Y cells [6]): had no effect
